Holding throughout (assay type): nucleic-acid assay
The target of test [1] is Nucleic Acid. The test can be described thus: Tested for binding affinity against RNA construct C; n.b. means no observable binding.
Test [2] has as its target Nucleic Acid. The test can be described thus: Tested for binding affinity against RNA construct A; n.b. means no observable binding.
The target in test [3] is Nucleic Acid. The test can be described thus: Tested for binding affinity against RNA construct E; n.b. means no observable binding.
Test [4] addresses Nucleic Acid. In words: Tested for binding affinity against RNA construct B; n.b. means no observable binding.
The target of test [5] is Nucleic Acid. In words: Tested for binding affinity against RNA construct D; n.b. means no observable binding.
Test [6] addresses Nucleic Acid. The test can be described thus: Tested for binding affinity against RNA construct A.
In test [7] the target is Nucleic Acid. The test can be described thus: Tested for binding affinity against RNA construct B.
Test [8] deals with Nucleic Acid. The test can be described thus: Tested for binding affinity against RNA construct E.
The target in test [9] is Nucleic Acid. The test can be described thus: Tested for binding affinity against RNA construct D.
Test [10] addresses Nucleic Acid. The test can be described thus: Tested for binding affinity against RNA construct C.

With `CN[C@@H]1[C@H](O[C@H]2[C@H](O[C@H]3[C@H](O)[C@@H](O)[C@H](N=C(N)N)[C@@H](O)[C@@H]3N=C(N)N)O[C@@H](C)[C@]2(O)C=O)O[C@@H](CO)[C@H](O)[C@H]1O` [STREPTOMYCIN], the dissociation constant Kd entry at Nucleic Acid [1], on Nucleic Acid [2], at Nucleic Acid [3], on Nucleic Acid [4] and at Nucleic Acid [5] was “No binding” in each case.

As to `NC[C@H]1O[C@H](O[C@H]2[C@H](O)[C@@H](O[C@H]3O[C@H](CO)[C@@H](O)[C@H](N)[C@H]3O)[C@H](N)C[C@@H]2N)[C@H](N)C[C@@H]1O` [TOBRAMYCIN], the Kd (commonly the constant that tells how readily two partners part at equilibrium) at Nucleic Acid [1] was “No binding”; on Nucleic Acid [6] it was 2070 nM; at Nucleic Acid [7] it was 2040 nM; on Nucleic Acid [8], 680 nM.

As to `NC[C@H]1O[C@H](O[C@H]2[C@H](O)[C@@H](O[C@H]3O[C@H](CO)[C@@H](O)[C@H](N)[C@H]3O)[C@H](N)C[C@@H]2N)[C@H](N)[C@@H](O)[C@@H]1O` [BEKANAMYCIN], the Kd entry at Nucleic Acid [1] is “No binding”; at Nucleic Acid [6], 2950 nM; on Nucleic Acid [7], 2900 nM; on Nucleic Acid [8], 910 nM; at Nucleic Acid [9], 2750 nM.

Regarding `NC[C@@H]1O[C@H](O[C@H]2[C@@H](O)[C@H](O[C@@H]3[C@@H](O)[C@H](N)C[C@H](N)[C@H]3O[C@H]3O[C@H](CN)[C@@H](O)[C@H](O)[C@H]3N)O[C@@H]2CO)[C@H](N)[C@@H](O)[C@@H]1O` [FRAMYCETIN], the Kd at Nucleic Acid [10] was 4340 nM; on Nucleic Acid [6] it was 410 nM; on Nucleic Acid [8], 91 nM; at Nucleic Acid [9] it was 470 nM.

As to `NC[C@@H]1O[C@H](O[C@H]2[C@@H](O)[C@H](O[C@@H]3[C@@H](O)[C@H](N)C[C@H](N)[C@H]3O[C@H]3O[C@H](CO)[C@@H](O)[C@H](O)[C@H]3N)O[C@@H]2CO)[C@H](N)[C@@H](O)[C@@H]1O` [PAROMOMYCIN], the dissociation constant (Kd) turned out to be 5330 nM at Nucleic Acid [10]; 1640 nM at Nucleic Acid [6]; 1580 nM on Nucleic Acid [7]; 400 nM on Nucleic Acid [8]; 1700 nM at Nucleic Acid [9].
